Experimental data taken from patent US11142529B2 (priority 2013, dated 2021).

Key:
GABAA receptors (α5β2γ2) = biological target: T1, GABAA receptors (α5β2γ2) (Homo sapiens, UniProt P18507+P31644); assay: Positive allosteric modulator activity, potentiation of EC20 GABA current in oocytes; assay type: cell-based; conditions: read-out: GABA α5 functional potentiation
T1 construct: expressed in transfected cells; host or cells: oocytes injected with a mix of alpha, beta and gamma cDNA (1:1:10 by weight)
Description: On day 1, 1 ng/32 nL of GABAA […] cDNA was injected into one oocyte. Test starts on day 2. The cDNA injected to the oocytes was a mix of alpha, beta and gamma, their ratio is 1:1:10 (by weight) and the total weight of the mixed 3 subunits to be injected in one oocyte was 1 ng in 32 nl volume. The injected oocytes can also be tested on day 3. In such case, the cDNA amount injected to the oocytes should be reduced by 20%.
1). 8 oocytes were placed in 8 chambers of OpusXpress and superfused with Modified Barth's Saline (MBS) at 3 mL/min. Glass electrodes back-filled with 3M KCl (0.5-3 megaohms) were used.
3). […] Oocytes were washed with MBS for 5-10 min.
2). […] Divide Itest by IGABA to obtain potentiation (%).
3). Discard all tested oocytes, new oocytes were used and the above steps 1) and 2) were repeated to test second concentration of the same compound. Each oocyte was used for only one concentration test for a single test compound. The steps were repeated for other test compounds.

α5β3γ2 GABAA receptors = biological target: T2, α5β3γ2 GABAA receptors (Homo sapiens, UniProt P18507+P31644); assay: Binding activity of test compounds on GABAAR ([3H]Ro15-1788 inhibition, Ltk cell membranes)
T2 construct: membranes
Description: The binding was performed on Ltk cells stably expressing GABAA receptors: α1β1γ2, α2β3γ2, α3β3γ2 and α5β3γ2 (provided by Merck Co., NJ, USA). Cells were seeded in 100 mm culture plates in DMEM/F12 medium containing 10% serum and antibiotics in 5% C02 and allowed to grow for 1-2 days. GABAAR expression was then induced by dexamethasone as follows: 0.5 μM for 1 day for α5 containing and 2 μM for 3 days for α1, α2 and α3 containing GABAARs. After induction, cells were collected by scraping into Dulbecco's Phosphate buffered saline (DPBS, pH 7.4, Invitrogen, Carlsbad, Calif., USA) and centrifuged at 150×g for 10 min. The pellet was washed twice by re-suspension and centrifugation. The cell pellets from at least 5 different preps were combined, suspended in the binding assay buffer (50 mM KH2PO4; 1 mM EDTA; 0.2 M KCl, pH 7.4) and membranes prepared by sonication (3-5 times, 30 sec) using Branson Sonifier 150 (G.Heinmann, Germany). Protein content was determined using BCA assay (Bio-Rad Labs, Reinach, Switzerland) with Bovine Serum Albumin (Sigma Aldrich, St. Louis, Mo., USA) as the standard. Aliquots were prepared and stored at −20° C. for further use in binding assays.
Saturation binding curves were obtained by incubating membranes with increasing concentrations (0.01-8 nM) of [^3H]Ro15-1788 (Flumazepil, 75-85 Ci/mmol, PerkinElmer, MA, USA), with nonspecific binding measured in the presence of 10 μM diazepam.
All binding assays were performed for 1 h at 4° C. in assay buffer. The total assay volume was 0.5 ml containing 0.2 mg/ml protein for α5 and 0.4 mg/ml for α1, α2, and α3 containing GABAAR membranes. Incubations were terminated by filtration through GF/B filters using a 24-Cell Harvestor (Brandel, Gaithersburg, Md., USA) followed by 3 washes with ice-cold assay buffer. Filters were transferred to scintillation vials, 5 ml scintillation liquid added, vortex-mixed and kept in dark. Next day, radioactivity was obtained using a scintillation counter (Beckman Coulter, Brea, Calif., USA). All assays were performed in triplicate.
Saturation and inhibition curves were obtained using GraphPad Prism software (GraphPad Software, Inc., CA, USA).

T2 sequence (P31644 32-462): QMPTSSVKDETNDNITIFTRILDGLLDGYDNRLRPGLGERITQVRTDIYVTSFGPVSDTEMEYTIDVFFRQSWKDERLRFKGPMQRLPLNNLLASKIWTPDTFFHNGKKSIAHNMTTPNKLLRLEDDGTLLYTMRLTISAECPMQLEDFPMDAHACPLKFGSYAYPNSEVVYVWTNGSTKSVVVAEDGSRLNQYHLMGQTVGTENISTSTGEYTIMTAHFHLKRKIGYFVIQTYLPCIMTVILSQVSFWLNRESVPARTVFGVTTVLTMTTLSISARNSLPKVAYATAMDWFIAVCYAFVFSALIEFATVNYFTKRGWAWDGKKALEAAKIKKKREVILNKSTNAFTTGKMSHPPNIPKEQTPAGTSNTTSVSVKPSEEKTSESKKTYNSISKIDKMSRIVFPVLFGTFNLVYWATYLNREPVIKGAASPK
T2 sequence (P28472 26-473 partner): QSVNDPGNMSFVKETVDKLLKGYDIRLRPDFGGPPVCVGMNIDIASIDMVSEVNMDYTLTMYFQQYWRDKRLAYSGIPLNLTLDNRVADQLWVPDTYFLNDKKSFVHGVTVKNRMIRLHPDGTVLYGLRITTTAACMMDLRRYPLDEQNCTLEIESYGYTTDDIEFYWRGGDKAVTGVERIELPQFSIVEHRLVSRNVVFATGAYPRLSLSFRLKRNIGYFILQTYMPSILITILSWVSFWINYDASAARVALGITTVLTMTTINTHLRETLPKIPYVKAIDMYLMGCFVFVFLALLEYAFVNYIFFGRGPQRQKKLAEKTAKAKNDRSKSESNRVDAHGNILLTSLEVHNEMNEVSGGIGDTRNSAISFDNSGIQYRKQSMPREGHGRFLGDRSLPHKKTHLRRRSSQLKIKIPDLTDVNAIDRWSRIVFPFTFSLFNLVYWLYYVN
T2 sequence (P18507 40-475): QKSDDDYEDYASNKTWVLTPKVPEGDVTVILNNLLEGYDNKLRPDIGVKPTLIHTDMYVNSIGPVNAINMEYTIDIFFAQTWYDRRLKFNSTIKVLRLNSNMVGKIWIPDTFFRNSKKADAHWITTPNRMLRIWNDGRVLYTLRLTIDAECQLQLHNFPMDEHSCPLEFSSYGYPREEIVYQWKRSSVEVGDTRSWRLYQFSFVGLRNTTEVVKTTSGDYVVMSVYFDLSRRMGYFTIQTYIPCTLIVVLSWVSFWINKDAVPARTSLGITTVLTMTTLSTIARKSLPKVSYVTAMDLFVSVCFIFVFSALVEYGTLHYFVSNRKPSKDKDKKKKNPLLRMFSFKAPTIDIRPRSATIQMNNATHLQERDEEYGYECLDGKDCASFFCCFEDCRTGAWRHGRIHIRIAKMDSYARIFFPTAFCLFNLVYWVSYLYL
T1 sequence (P31644 32-462): as the sequence (P31644 32-462) above
T1 sequence (P47870 25-512 partner limits assumed): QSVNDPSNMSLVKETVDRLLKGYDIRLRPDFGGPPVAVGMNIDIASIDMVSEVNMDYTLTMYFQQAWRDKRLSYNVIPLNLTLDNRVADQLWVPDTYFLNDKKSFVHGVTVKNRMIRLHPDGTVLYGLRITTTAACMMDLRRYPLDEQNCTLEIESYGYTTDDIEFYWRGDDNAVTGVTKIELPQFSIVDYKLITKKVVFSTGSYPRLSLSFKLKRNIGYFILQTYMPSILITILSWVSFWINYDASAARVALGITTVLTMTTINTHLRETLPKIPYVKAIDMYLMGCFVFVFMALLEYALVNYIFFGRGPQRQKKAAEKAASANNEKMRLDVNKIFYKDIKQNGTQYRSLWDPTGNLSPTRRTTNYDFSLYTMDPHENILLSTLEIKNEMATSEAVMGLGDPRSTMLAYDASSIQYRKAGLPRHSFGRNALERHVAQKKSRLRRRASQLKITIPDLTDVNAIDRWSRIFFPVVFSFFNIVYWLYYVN
T1 sequence (P18507 40-475): as the sequence (P18507 40-475) above

| SMILES | activation at 0.1 µM (GABAA receptors (α5β2γ2)) [%] | Ki (α5β3γ2 GABAA receptors) [nM] |
| --- | --- | --- |
| CCOC(=O)c1ncn2c1Cc1c(C)nnn1-c1cc(OC)ccc1-2 [Compound 1] | 20 to 49 | < 99 |
| CCOC(=O)c1ncn2c1Cc1c(C)nnn1-c1cc(F)ccc1-2 [Compound 2] | 20 to 49 | < 99 |
| CCOC(=O)c1ncn2c1Cc1c(C)nnn1-c1ccccc1-2 [Compound 3] | – | < 99 |
| CCOC(=O)c1ncn2c1Cc1c(Cc3ccccc3)nnn1-c1cc(OC)ccc1-2 [Compound 4] | – | < 99 |
| CCOC(=O)c1ncn2c1Cc1c(Cc3ccccc3)nnn1-c1ccccc1-2 [Compound 5] | – | < 99 |
| CCOC(=O)c1ncn2c1Cc1c(Cc3ccccc3)nnn1-c1cc(F)ccc1-2 [Compound 6] | – | < 99 |
| CCOC(=O)c1ncn2c1Cc1c(C)cnn1-c1cc(OC)ccc1-2 [Compound 7] | – | < 99 |
| CCOC(=O)c1ncn2c1Cc1c(Cc3ccccc3)cnn1-c1cc(OC)ccc1-2 [Compound 8] | – | < 99 |
| CCOC(=O)c1ncn2c1Cc1c(COc3ccccc3)nnn1-c1cc(OC)ccc1-2 [Compound 9] | 20 to 49 | < 99 |
| CCOC(=O)c1ncn2c1Cc1c(COc3ccc(F)cc3)nnn1-c1cc(OC)ccc1-2 [Compound 10] | – | < 99 |
| CCOC(=O)c1ncn2c1Cc1c(COc3cccc(OC)c3)nnn1-c1cc(OC)ccc1-2 [Compound 11] | 20 to 49 | < 99 |
| CCOC(=O)c1ncn2c1Cc1c(COc3ccc(C)cc3C)nnn1-c1cc(OC)ccc1-2 [Compound 12] | – | < 99 |
| CCOC(=O)c1ncn2c1Cc1c(Cc3ccc(C)cc3)nnn1-c1cc(F)ccc1-2 [Compound 44] | – | < 99 |
| CCOC(=O)c1ncn2c1Cc1c(Cc3ccc(Cl)cc3)nnn1-c1cc(F)ccc1-2 [Compound 45] | 20 to 49 | < 99 |
| CCOC(=O)c1ncn2c1Cc1c(Cc3ccc(Cl)cc3)nnn1-c1ccccc1-2 [Compound 47] | – | < 99 |
| CCOC(=O)c1ncn2c1Cc1c(CN3CCCC3)nnn1-c1cc(OC)ccc1-2 [Compound 48] | 20 to 49 | < 99 |
| CCOC(=O)c1ncn2c1Cc1c(CN3CCOCC3)nnn1-c1cc(OC)ccc1-2 [Compound 49] | – | < 99 |
| CCOC(=O)c1ncn2c1Cc1c(CN(C)Cc3ccccc3)nnn1-c1cc(OC)ccc1-2 [Compound 51] | – | < 99 |
| CCOC(=O)c1ncn2c1Cc1c(Cc3cccc(Cl)c3)nnn1-c1cc(OC)ccc1-2 [Compound 52] | – | < 99 |
| CCOC(=O)c1ncn2c1Cc1c(Cc3cccc(C#N)c3)nnn1-c1cc(OC)ccc1-2 [Compound 53] | – | < 99 |

| SMILES | activation at 0.1 µM (GABAA receptors (α5β2γ2)) [%] | Ki (α5β3γ2 GABAA receptors) [nM] |
| --- | --- | --- |
| CCOC(=O)c1ncn2c1Cn1c(COc3ccccc3)nnc1-c1cc(OC)ccc1-2 [Compound 55] | 20 to 49 | < 99 |
| CCOC(=O)c1ncn2c1Cn1c(COc3ccc(F)cc3)nnc1-c1cc(OC)ccc1-2 [Compound 56] | – | < 99 |
| CCOC(=O)c1ncn2c1Cn1c(COC)nnc1-c1cc(OC)ccc1-2 [Compound 103] | – | < 99 |
| CCOC(=O)c1ncn2c1Cn1c(Oc3ccccc3)nnc1-c1cc(OC)ccc1-2 [Compound 104] | – | < 99 |
| CCOC(=O)c1ncn2c1Cn1c(Oc3cccc(OC)c3)nnc1-c1cc(OC)ccc1-2 [Compound 105] | – | < 99 |
| CCOC(=O)c1ncn2c1Cn1c(Br)nnc1-c1cc(OC)ccc1-2 [Compound 106] | – | < 99 |
| CCOC(=O)c1ncn2c1Cc1c(COc3ccccc3)nnn1-c1cc(F)ccc1-2 [Compound 107] | – | < 99 |
| CCOC(=O)c1ncn2c1Cc1c(Cc3ccccc3Cl)nnn1-c1cc(OC)ccc1-2 [Compound 108] | – | < 99 |
| Cc1noc(-c2ncn3c2Cc2c(Cc4ccccc4)nnn2-c2cc(F)ccc2-3)n1 [Compound 109] | 20 to 49 | < 99 |
| Cc1noc(-c2ncn3c2Cc2c(C)nnn2-c2cc(F)ccc2-3)n1 [Compound 110] | 20 to 49 | – |
| CCOC(=O)c1ncn2c1Cc1c(Cc3cccnc3)nnn1-c1cc(C)ccc1-2 [Compound 111] | 20 to 49 | < 99 |
| Cc1nnn2c1Cc1c(C(=O)OC(C)C)ncn1-c1ccc(F)cc1-2 [Compound 112] | – | < 99 |
| Cc1nnn2c1Cc1c(C(=O)OCC(C)(C)C)ncn1-c1ccc(F)cc1-2 [Compound 113] | > 50 | – |
| Cc1nnn2c1Cc1c(C(=O)OCC(F)(F)F)ncn1-c1ccc(F)cc1-2 [Compound 114] | > 50 | < 99 |
| COc1ccc2c(c1)-c1nnc(COc3ccccc3)n1Cc1c(-c3nc(C)no3)ncn1-2 [Compound 118] | 20 to 49 | < 99 |
| COc1ccc2c(c1)-c1nnc(COc3ccccc3)n1Cc1c(C(=O)OC(C)C)ncn1-2 [Compound 120] | 20 to 49 | < 99 |
| COc1ccc2c(c1)-c1nnc(COc3ccccc3)n1Cc1c(C#N)ncn1-2 [Compound 122] | – | < 99 |
| Cc1noc(-c2ncn3c2Cc2c(C)nnn2-c2ccccc2-3)n1 [Compound 126] | 20 to 49 | < 99 |
| Cc1nc(-c2ncn3c2Cc2c(C)nnn2-c2ccccc2-3)no1 [Compound 127] | 20 to 49 | < 99 |
| COCc1nnc2n1Cc1c(-c3nc(C)no3)ncn1-c1ccc(OC)cc1-2 [Compound 128] | 20 to 49 | < 99 |

| SMILES | activation at 0.1 µM (GABAA receptors (α5β2γ2)) [%] | Ki (α5β3γ2 GABAA receptors) [nM] |
| --- | --- | --- |
| COCc1nnc2n1Cc1c(Br)ncn1-c1ccc(OC)cc1-2 [Compound 129] | – | < 99 |
| COCc1nnc2n1Cc1c(-c3nc(C(C)C)no3)ncn1-c1ccc(OC)cc1-2 [Compound 130] | 20 to 49 | < 99 |
| Cc1nnn2c1Cc1c(-c3nc(C(C)C)no3)ncn1-c1ccccc1-2 [Compound 132] | 20 to 49 | < 99 |
| Cc1nnn2c1Cc1c(-c3noc(C(C)C)n3)ncn1-c1ccccc1-2 [Compound 133] | – | < 99 |
| CCOC(=O)c1ncn2c1Cn1c(COc3ccccc3)nnc1-c1cc(F)ccc1-2 [Compound 137] | 20 to 49 | < 99 |
| Cc1nc(-c2ncn3c2Cc2c(C)nnn2-c2cc(F)ccc2-3)no1 [Compound 145] | > 50 | < 99 |
| CC(C)c1nc(-c2ncn3c2Cn2c(COc4ccccc4)nnc2-c2cc(F)ccc2-3)no1 [Compound 147] | 20 to 49 | < 99 |
| Cc1nc(-c2ncn3c2Cn2c(COc4ccccc4)nnc2-c2cc(F)ccc2-3)no1 [Compound 148] | 20 to 49 | < 99 |
| Cc1nnn2c1Cc1c(-c3noc(C(F)(F)F)n3)ncn1-c1ccc(F)cc1-2 [Compound 150] | – | < 99 |
| Cc1nnn2c1Cc1c(-c3ncon3)ncn1-c1ccc(F)cc1-2 [Compound 151] | – | < 99 |
| CC(C)OC(=O)c1ncn2c1Cn1c(COc3ccccc3)nnc1-c1cc(F)ccc1-2 [Compound 156] | – | < 99 |
| N#Cc1ncn2c1Cn1c(COc3ccccc3)nnc1-c1cc(F)ccc1-2 [Compound 157] | – | < 99 |
| Fc1ccc2c(c1)-c1nnc(COc3ccccc3)n1Cc1c(-c3noc(C(F)(F)F)n3)ncn1-2 [Compound 159] | – | < 99 |
| C#Cc1ncn2c1Cc1c(C)nnn1-c1ccccc1-2 [Compound 161] | – | < 99 |
| COCc1nnc2n1Cc1c(-c3noc(C)n3)ncn1-c1ccc(OC)cc1-2 [Compound 164] | – | < 99 |
| COc1ccc2c(c1)-c1nnc(COCc3ccccc3)n1Cc1c(-c3noc(C)n3)ncn1-2 [Compound 165] | – | < 99 |
| COc1ccc2c(c1)-c1nnc(COCc3ccccc3)n1Cc1c(C#N)ncn1-2 [Compound 166] | – | < 99 |
| COc1ccc2c(c1)-n1nnc(C)c1Cc1c(-c3nc(C)no3)ncn1-2 [Compound 167] | – | < 99 |
| COc1ccc2c(c1)-n1nnc(COc3cccc(F)c3)c1Cc1c(-c3noc(C)n3)ncn1-2 [Compound 168] | – | < 99 |
| COCc1nnc2n1Cc1c(-c3noc(C(C)C)n3)ncn1-c1ccc(OC)cc1-2 [Compound 169] | – | < 99 |
